This is an account of results in patent US20240060040A1, “METHODS FOR GENERATING INNER EAR HAIR CELLS” (Ear Science Institute Australia, priority 2020, published 2024).

The structures appear in SMILES notation.

Type in all cases: cell-based
Assay [1] has as its system Human iPSCs derived inner ear organoid. Description: Single cell RNA sequencing and TaqMan qRT-PCR cell fate analysis. The settings on record: for inner ear hair cell differentiation in comparison with organoids developed using the Koehler method: RNA sequencing and TaqMan qRT-PCR, FIGS. 15 and 16; for hair cell and neuronal markers by single cell RNA sequencing: organoids at Day 60, Koehler method ~57.88%. As for the experimental part:
FIG. 1 illustrates methods for generating inner ear hair cells from the induced pluripotent stem cells. The inventor added a combination of agents and inhibitors at developmental stages of the inner ear organoid culture to produce the invention.
To verify the hair cell marker genes in RNAseq transcriptome analysis, quantitative TaqMan® real-time polymerase chain reaction (qRT-PCR) in inner ear organoids was performed to identify the level of hair cell gene expression. FIG. 15 illustrates sensory hair cell-specific gene expression analysis on human iPSCs derived inner ear organoid at Day 60 by single cell RNA sequencing transcriptome analysis. FIG. 16 illustrates otic epithelial-specific gene expression in inner ear organoids at Day 20 and inner ear sensory cell-specific gene expression in inner ear organoids at Day 60 by TaqMan® qRT-PCR analyses. The presence of MyoVI represents inner ear hair cell differentiation.
In general terms: Quantitative PCR measures a nucleic acid by following its amplification.

The test system is the same in assay [2]. Description: SOX2 and Tuj1 expression by confocal microscopy. The settings on record: day 33-60; FIG. 18. Here is the method:
(§1) FIG. 1 illustrates methods for generating inner ear hair cells from the induced pluripotent stem cells. The inventor added a combination of agents and inhibitors at developmental stages of the inner ear organoid culture to produce the invention. In particular: • (i) ROCK inhibitor (Y-27632) is added to iPSC in suspension culture to promote the formation of three-dimensional embryoid bodies for about 3 days. • (ii) TGF-β inhibitor (SB-431542) is added at low concentration of FGF to drive the development of non-neural ectoderm in days 0 to 3. • (iii) The cultures are then transitioned to medium containing a high concentration of FGF and BMP inhibitor (LDN-193189) during days 4-7, which drives development of the early pre-otic placodal epithelium/pre-placodal ectoderm. • (iv) Next, Wnt agonist (CHIR-99021) is added to stimulate development of otic placode from days 8-11, otic pit formation from days 12-14 and otic prosensory vesicles from days 15-17. • (v) From days 18-32, hedgehog signalling inhibitor (CYC, GANT58 or GANT61) is added to promote the formation of sensory epithelium vesicles, and continued culture under these conditions results in the formation of sensory hair cells with neural innervation from day 33 onwards.
To identify the development of sensory hair cells of inner ear organoids at Day 33-60, the SOX2 and Tuj1 expression in organoids was observed by using confocal microscopy. The results are presented in FIG. 18, which compares organoids developed using (a) the method of Example 1 with cyclopamine (Example 2), and (b) the method of Example 1 with GANT58 (Example 3) and GANT61 (Example 4).

Assay [3] has the same test system. Nature of the assay: MyosinVIIa and Tuj1 immunostaining with confocal imaging (sensory hair cells and nerve innervation). The settings on record: for sensory hair cells and neuronal cells in organoids / sensory hair cells and supporting cells in organoids: day 33-60; for sensory hair cells and neuronal cells in organoids: FIG. 17; for inner ear hair cells and nerve innervation detected: inhibitor 1 μM from day 18, removed day 33, 10% Matrigel; for sensory hair cells and supporting cells in organoids: FIG. 14. Here is the method:
as §1
On day 18, the SHH inhibitor cyclopamine (CAT 239803 from Merck Millipore) was added to the cell culture to reach a final concentration of 1 μM. Matrigel® was also added to the cell culture to reach a concentration of 10%. The cells were cultured in organoid maturation medium until day 33.
On day 33, the cyclopamine was removed from the medium by washing and the droplet aggregates were remained in the cell culture containing 10% Matrigel®.
The cells were then cultured for up to 200 days in the Organoid Maturation Medium containing 10% Matrigel®. 200 μL of medium was changed daily for each well. The cells were cultured until 60-100 days, until an examination of the cell's morphology determined maturation. The viable, medium size and round 3D shape organoids with inner ear sensory cell gene expression markers were selected for analysis.
Inner ear hair cells and nerve innervation was detected after Day 35. The presence and number of inner ear hair cells was detected by immunostaining and capture with confocal imaging.
(§2) To identify the development of sensory hair cells of inner ear organoids at Day 33-60, the MyosinVIIa and Tuj1 expression in organoids was observed by using confocal microscopy. The results are presented in FIG. 14, which compares organoids developed using (a) the method of Example 1 with cyclopamine (Example 2), and (b) the method of Example 1 with GANT58 (Example 2). […] An opaque outer cell mass is indicative of complete re-organization, which was found in organoids developed using each of the SHH inhibitors. In comparison, less translucent epithelium indicative of incomplete or partial re-organization was found in organoids developed using the Koehler method. Sensory hair cell epithelium through the aggregate surface was found in organoids developed using each SHH inhibitor.
as §2, with “MyoVIIa” for “MyosinVIIa”, “17,” for “14,”, “3) and GANT61 (Example 4).” for “2).”, “inhibitors.” for “inhibitors. In comparison, less translucent epithelium indicative of incomplete or partial re-organization was found in organoids developed using the Koehler method.”

Assay [4] has the same test system. Description: ECAD and PAX2 expression by confocal microscopy (ectodermal cell fate). Conditions: day 20; treated aggregates, compared with Koehler method. As for the experimental part: as §1
To identify the ectodermal cell fate of inner ear organoids at Day 20-40, the ECAD and PAX2 expression in organoids was observed by using confocal microscopy, comparing organoids developed using (a) Koehler's method without Hh inhibitors, (b) the method of Example 1 with cyclopamine as the SHH inhibitor (Example 2), (c) the method of Example 1 with GANT58 as the SHH inhibitor (Example 3) and (d) the method of Example 1 with GANT61 as the SHH inhibitor (Example 4). […] The ectodermal cell fate of the inner ear organoids developed better with the SHH inhibitors compared with the Koehler method. […] The formation of ectodermal cell appeared to be continuous, beginning on day 7 until approximately day 20-40.

On to `CN(C)c1ccccc1CN1CCCN(Cc2ccccc2N(C)C)C1c1ccncc1` [GANT61], for which, in assay [1], the “inner ear hair cell differentiation in comparison with organoids developed using the Koehler method” value (from here on “inner ear hair cell differentiation”) was “greater inner ear hair cell differentiation”. For the same molecule, the “supporting cells and neuronal cells in organoids” value in assay [2] is “present”. For the same molecule, in assay [3], the “sensory hair cells and neuronal cells in organoids” value is “present”; the “inner ear hair cells and nerve innervation detected” value was over 35 days. In assay [4], the “abundance of ECAD/PAX2 positive vesicles with a luminal diameter greater than 50 μm” value (“abundance of ECAD/PAX2 positive vesicles” below) is “higher abundance”.
For `CC1=C2C[C@H]3[C@@H](CC=C4C[C@@H](O)CC[C@@]43C)[C@@H]2CC[C@]12O[C@@H]1C[C@H](C)CN[C@H]1[C@H]2C` [cyclopamine], in assay [1], the “inner ear hair cell differentiation” value was “greater inner ear hair cell differentiation”; the “hair cell and neuronal markers by single cell RNA sequencing” value is recorded as about 74.48%. In addition, in assay [2], the “supporting cells and neuronal cells in organoids” value is on record as “present”. In addition, in assay [3], the “sensory hair cells and supporting cells in organoids” value was “present”; the “sensory hair cells and neuronal cells in organoids” value was “present”; the “inner ear hair cells and nerve innervation detected” value was over 35 days. The “abundance of ECAD/PAX2 positive vesicles” value in assay [4] is “higher abundance”.
Regarding `c1cc(-c2sc(-c3ccncc3)c(-c3ccncc3)c2-c2ccncc2)ccn1` [GANT58], in assay [1], the “inner ear hair cell differentiation” value is recorded as “greater inner ear hair cell differentiation”; the “hair cell and neuronal markers by single cell RNA sequencing” value is given as about 91.88%. Moreover, in assay [2], the “supporting cells and neuronal cells in organoids” value is listed as “present”. In assay [3], the “sensory hair cells and supporting cells in organoids” value is on record as “present”; the “sensory hair cells and neuronal cells in organoids” value is “present”; the “inner ear hair cells and nerve innervation detected” value was over 35 days. Besides, the “abundance of ECAD/PAX2 positive vesicles” value in assay [4] is reported as “higher abundance”.
